How the values were obtained:
antibodies to HIV-1 [1] = assay: ELISA with peptides (III) and (IV), AIDS/ARC patient sera (Procedure 1); format: binding, human
Method: (§1) • (1) coat ELISA plate with peptide - 1ug/50ul/well in 0.1M NaHCO₃, pH 9; • (2) let plates dry overnight uncovered at 37°C; then wash with PBS; • (3) block plates with 300ul/well of blocking buffer (5% NCS-PBS) for 2 hrs. at 37°C; • (4) shake out blocking buffer and drain well; • (5) add 50ul/well test antiserum (first antibody) for 30 to 120 minutes at 37°C. (If the antiserum is to be diluted, use T-wash.) Dilutions of 1:2 to 1:100 have been used; • (6) shake out test antisera and wash plate six times with PBS-Tween20; • (7) add 100ul/well of labeled specific binding agent in the form of a enzyme-labeled second antibody diluted 1:4000 with T-wash. Maintain 30 to 120 minutes at 37°C; • (8) shake out any unreacted second antibody and wash plate six times with PBS-Tween20; • (9) add 100ul/well OPD substrate (or 5ul ABTS solution) for 20 minutes at RT; • (10) add 50ul/well of 4N H₂SO₄ to stop OPD reaction (or 100ul/well of 1% SDS for ABTS reaction); • (11) read plate on an MR 500 Microplate ELISA plate reader. (490nm for OPD or 405 nm for ABTS).
Additional AIDS/ARC patient sera were assayed with ELISA assays employing the two highly reactive peptides of formulas (III) and (IV) (Example IV-Procedure 1).

antibodies to HIV-1 [2] = assay: Competition ELISA, formula (I) peptide as solid phase antigen (Example 4A); format: binding, human
Method: as §1

antibodies to HIV-1 [3] = assay: Competition ELISA, admixed formula (III) and (IV) peptides as solid phase antigen (Example 4A); format: binding, human
Method: as §1
Further evidence that more than one epitope is present in formula (III) and (IV) peptides can be deduced from absorbance values obtained from competition studies, the results of an example of which are shown in Table 11. In this study, admixed formula (III) and (IV) peptides were applied to a microtiter plate as the immobilized, solid phase antigen and an ELISA assay (Example 4A) was performed under five different conditions: without competition, or competition with excess formula (III) peptide, formula (IV) peptide, an admixture of both peptides [(III)+(IV)], or with a heterologous peptide. The competition was performed by adding the appropriate peptide(s) to the diluted serum just before adding the serum sample to the microtiter well.

antibodies to HIV-1 [4] = assay: E8 peptide competition (blocking) assay: serum mixed with peptide (II), peptide (II) as solid phase antigen; format: binding, human; settings: last seven samples of Table 7 (antibody positive sera)
Method: Presented in Table 7 below are data relating to the assay of various patient sera. In addition to the usual assay with peptide (II) as described in Example 4-Procedure A, each serum was assayed against peptide (II) after mixing the serum sample with an effective blocking amount of the peptide (II). Also included in the Table are the results of assaying each sample with commercially available kits.
Furthermore, even samples incorrectly identified as positive by the E8 assay are correctly identified as negative by the E8 peptide competition assay. […] The last seven samples assayed as shown in Table 7 are positive for antibody by both the E8 assay and commercially available assays (with the exception of two false negatives using the Abbott kit) and by the more tedious and time consuming Western blot assay.

HIV-1 antibodies [5] = assay: ELISA of serum panels: E8 assay (peptide (II) as solid phase antigen, Procedure #1) compared with commercial viral lysate kits; format: binding, human; parameters: key: +: antibody-positive; antibody-negative; settings: E8 absorbance cutoff 0.104
Method: as §1, with “ABTS). […]” for “ABTS).”
(§2) The ELISA kits described in Example 4A made with peptide (II) were evaluated against a panel of sera comprising sera from normal subjects, patients with disorders or diseases unrelated to AIDS, known AIDS patients, known ARC patients, and patients whose diagnosis is unknown but who are antibody-positive for […] antibodies by commercial tests or by Western blot assay. […]

HIV-1 antibodies [6] = assay: as above; format: binding, human; parameters: key: (+)=False Positives; settings: 6 samples; NPC/NON-AIDS
Method: as §1, with “(490nm for OPD or 405 nm for ABTS).” left out
as §2

HIV-1 antibodies [7] = assay: as above; format: binding, human; settings: 200 normal sera; S.D. 0.017
Method: as §1, with “(490nm for OPD or 405 nm for ABTS).” left out
as §2

HIV-1 antibodies [8] = assay: as above; format: binding, human; parameters: key: (-) = False Negatives
Method: as §1, with “ABTS). […]” for “ABTS).”
as §2

antibodies against HIV-2 = assay: ELISA with STLV-III polypeptides p80 and p81, alone and in combination; format: binding, human; settings: two sera containing high titers of antibodies against HIV-2, diluted 1:10; 490nm
Method: Preliminary studies using two sera containing high titers of antibodies against HIV-2 were performed by ELISA using each of p80 and p81 alone and in combination. One hundred microliters (ul) of 0.01M NaHCO₃, pH 9.6, containing 1 microgram (ug) of either p80 or p81 or a combination (admixture) of 1 ug of p80 and 1 ug of p81 were admixed into the wells of Immunolon II microtiter plates (Dynatech, Alexandria, VA). The plates were then maintained for about 16 hours at 4 degrees C to permit the polypeptides to adsorb onto (coat) the walls of the wells. After removing the polypeptide coating solution by shaking, 300 ul of PBS containing 1% bovine serum albumin (BSA), 5mM benzamidine, 10 kilounits Aprotinin, 10ug/ml Trypsin Inhibitor, 10mM EACA, 0.5mM PMSF, 2mM EDTA and 10% glycerol were admixed into each well to block excess protein binding sites. […]
Two hundred ul of OPD substrate were then admixed into each well to form a developing-reaction admixture. After maintaining the developing-reaction admixture for 30 minutes at about 20 degrees C, 50 ul of 4N H₂SO₄ were admixed into each well to stop the developing-reaction, and the resulting solutions were assayed for absorbance at 490nm using a microtiter plate reader.

24 sera = assay: Comparison of peptide p80 based and peptide p81 based ELISA, 24 sera; format: binding
Description: The absorbance values obtained for each of 24 sera in a peptide p80 based ELISA were divided by those obtained in a peptide p81 based ELISA. The resulting absorbance value ratios are shown in ranked order in Table 14.

IWGCSGKLICTTAVPWNAS [peptide (III)]
absorbance values (antibodies to HIV-1 [1]; serum sample 0509 (group B)): 0.403 | absorbance values (antibodies to HIV-1 [1]; serum sample 0649 (group A)): 1.756 | absorbance values (antibodies to HIV-1 [1]; serum sample 0653 (group B)): 0.111 | absorbance values (antibodies to HIV-1 [1]; serum sample 0662 (group B)): 0.301 | absorbance values (antibodies to HIV-1 [1]; serum sample 3362 (group A)): 0.503 | absorbance values (antibodies to HIV-1 [1]; serum sample 3411 (group C)): >2.00 | absorbance values (antibodies to HIV-1 [1]; serum sample 3412 (group A)): >2.00 | absorbance values (antibodies to HIV-1 [1]; serum sample 3413 (group C)): >2.00 | absorbance values (antibodies to HIV-1 [1]; serum sample 3414 (group C)): 1.453 | absorbance values (antibodies to HIV-1 [1]; serum sample 3416 (group C)): 1.914 | absorbance values (antibodies to HIV-1 [1]; serum sample 3456 (group C)): 1.670 | absorbance values (antibodies to HIV-1 [1]; serum sample 3555 (group B)): 0.428 | absorbance values (antibodies to HIV-1 [1]; serum sample 3575 (group B)): 0.350 | absorbance values (antibodies to HIV-1 [1]; serum sample 3666 (group C)): >2.00 | absorbance values (antibodies to HIV-1 [1]; serum sample 3693 (group A)): 0.559 | absorbance values (antibodies to HIV-1 [1]; serum sample 3722 (group A)): 0.620 | absorbance values (antibodies to HIV-1 [1]; serum sample 3744 (group B)): 0.311 | absorbance values (antibodies to HIV-1 [1]; serum sample 3790 (group B)): 0.224 | competition with formula (I) peptide on the plate (antibodies to HIV-1 [2]; result in words): competed very effectively | absorbance with competing peptide (antibodies to HIV-1 [2]; sample 013, unblocked 1.177): 0.046 | absorbance with competing peptide (antibodies to HIV-1 [2]; sample 014, unblocked 0.383): 0.067 | absorbance with competing peptide (antibodies to HIV-1 [3]; sample 3412, unblocked 1.450): 0.113 | absorbance with competing peptide (antibodies to HIV-1 [3]; sample 3413, unblocked >2.00): 0.381 | absorbance with competing peptide (antibodies to HIV-1 [3]; sample 3416, unblocked >2.00): 1.811 | absorbance with competing peptide (antibodies to HIV-1 [3]; sample 3544, unblocked 1.810): 0.876 | absorbance with competing peptide (antibodies to HIV-1 [3]; sample 3575, unblocked 1.267): 0.982 | absorbance with competing peptide (antibodies to HIV-1 [3]; sample 3693, unblocked 0.340): 0.103 | absorbance with competing peptide (antibodies to HIV-1 [3]; sample 3790, unblocked 1.558): 1.320

CSGKLIC [(I)]
absorbance with competing peptide (antibodies to HIV-1 [2]; sample 013, unblocked 1.177): 0.038 | absorbance with competing peptide (antibodies to HIV-1 [2]; sample 014, unblocked 0.383): 0.050

IWGCSGKLICTTAVP [peptide (II), solid phase antigen of the "E8" assay]
reactivity of sera with peptide (II) as solid phase antigen after mixing each serum with peptide (II) (antibodies to HIV-1 [4]): effectively blocked | Assay result (HIV-1 antibodies [5]; 1 sample, Normal, Sample ID 749): - | Assay result (HIV-1 antibodies [5]; 1 sample, Normal, Sample ID 2846): + | Assay result (HIV-1 antibodies [5]; 198 samples, Diagnosis Normal): - | Assay result (HIV-1 antibodies [6]): (+) | Mean Absorbance of Normals (HIV-1 antibodies [7]): 0.016 | Assay result (HIV-1 antibodies [8]; 1 sample, AIDS, Sample I.D. 653): (-) | Assay result (HIV-1 antibodies [8]; 2 samples, AIDS, Sample I.D. 533,3621): (-) | Assay result (HIV-1 antibodies [8]; 2 samples, ARC, Sample I.D. 512,529): (-)

AWCAFRQVCHTTVPWPNAS [p81]
absorbance values (antibodies against HIV-2): about 0.4 | absorbance value (24 sera; Serum No. 3541): 0.025 | absorbance value (24 sera; Serum No. 3616): 0.047 | absorbance value (24 sera; Serum No. 3743): 0.040 | absorbance value (24 sera; Serum No. 3923): 0.067 | absorbance value (24 sera; Serum No. 3942): 0.051 | absorbance value (24 sera; Serum No. 5160): 0.236 | absorbance value (24 sera; Serum No. 5182): 0.102 | absorbance value (24 sera; Serum No. 5727): 0.563 | absorbance value (24 sera; Serum No. 5740): 0.043 | absorbance value (24 sera; Serum No. 6598): 0.205 | absorbance value (24 sera; Serum No. 6599): 0.232 | absorbance value (24 sera; Serum No. 6600): 0.306 | absorbance value (24 sera; Serum No. 6601): 0.138 | absorbance value (24 sera; Serum No. 6602): 0.001 | absorbance value (24 sera; Serum No. 6603): 0.421 | absorbance value (24 sera; Serum No. 6604): 0.400 | absorbance value (24 sera; Serum No. 6631): 0.285 | absorbance value (24 sera; Serum No. 6650): 0.034 | absorbance value (24 sera; Serum No. 6661): 0.160 | absorbance value (24 sera; Serum No. 6665): 0.053 | absorbance value (24 sera; Serum No. 6674): 0.258 | absorbance value (24 sera; Serum No. 6683): 0.489 | absorbance value (24 sera; Serum No. 6698): 0.022 | absorbance value (24 sera; Serum No. 6877): 0.008
